Source: ChEMBL document CHEMBL4715697, “Synthesis and biological activity of benzamide DNA minor groove binders” (2016)

Columns and labels:
Type in all cases: functional
Details in all cases: read-out: Activity
KM12 = test: Growth inhibition of human KM12 cells assessed as cell growth at 10 uM incubated for 48 hrs by sulforhodamine B assay relative to control
HCC 2998 = test: Growth inhibition of human HCC 2998 cells assessed as cell growth at 10 uM incubated for 48 hrs by sulforhodamine B assay relative to control
HL-60(TB) = test: Growth inhibition of human HL-60(TB) cells assessed as cell growth at 10 uM incubated for 48 hrs by sulforhodamine B assay relative to control
NCI/ADR-RES = test: Growth inhibition of human NCI/ADR-RES cells assessed as cell growth at 10 uM incubated for 48 hrs by sulforhodamine B assay relative to control
UACC-62 = test: Growth inhibition of human UACC-62 cells assessed as cell growth at 10 uM incubated for 48 hrs by sulforhodamine B assay relative to control
SF-268 = test: Growth inhibition of human SF-268 cells assessed as cell growth at 10 uM incubated for 48 hrs by sulforhodamine B assay relative to control
SF-539 = test: Growth inhibition of human SF-539 cells assessed as cell growth at 10 uM incubated for 48 hrs by sulforhodamine B assay relative to control
NCI-H322M = test: Growth inhibition of human NCI-H322M cells assessed as cell growth at 10 uM incubated for 48 hrs by sulforhodamine B assay relative to control
NCI-H226 = test: Growth inhibition of human NCI-H226 cells assessed as cell growth at 10 uM incubated for 48 hrs by sulforhodamine B assay relative to control
NCI-H23 = test: Growth inhibition of human NCI-H23 cells assessed as cell growth at 10 uM incubated for 48 hrs by sulforhodamine B assay relative to control
UACC-257 = test: Growth inhibition of human UACC-257 cells assessed as cell growth at 10 uM incubated for 48 hrs by sulforhodamine B assay relative to control
M14 = test: Growth inhibition of human M14 cells assessed as cell growth at 10 uM incubated for 48 hrs by sulforhodamine B assay relative to control
CAKI-1 = test: Growth inhibition of human CAKI-1 cells assessed as cell growth at 10 uM incubated for 48 hrs by sulforhodamine B assay relative to control
MDA-MB-435 = test: Growth inhibition of human MDA-MB-435 cells assessed as cell growth at 10 uM incubated for 48 hrs by sulforhodamine B assay relative to control
HCT-15 = test: Growth inhibition of human HCT-15 cells assessed as cell growth at 10 uM incubated for 48 hrs by sulforhodamine B assay relative to control
HT-29 = test: Growth inhibition of human HT-29 cells assessed as cell growth at 10 uM incubated for 48 hrs by sulforhodamine B assay relative to control
SNB-19 = test: Growth inhibition of human SNB-19 cells assessed as cell growth at 10 uM incubated for 48 hrs by sulforhodamine B assay relative to control
EKVX = test: Growth inhibition of human EKVX cells assessed as cell growth at 10 uM incubated for 48 hrs by sulforhodamine B assay relative to control
U-251 = test: Growth inhibition of human U-251 cells assessed as cell growth at 10 uM incubated for 48 hrs by sulforhodamine B assay relative to control
SNB-75 = test: Growth inhibition of human SNB-75 cells assessed as cell growth at 10 uM incubated for 48 hrs by sulforhodamine B assay relative to control
CCRF-CEM = test: Growth inhibition of human CCRF-CEM cells assessed as cell growth at 10 uM incubated for 48 hrs by sulforhodamine B assay relative to control
UO-31 = test: Growth inhibition of human UO-31 cells assessed as cell growth at 10 uM incubated for 48 hrs by sulforhodamine B assay relative to control
786-0 = test: Growth inhibition of human 786-0 cells assessed as cell growth at 10 uM incubated for 48 hrs by sulforhodamine B assay relative to control
SK-MEL-2 = test: Growth inhibition of human SK-MEL-2 cells assessed as cell growth at 10 uM incubated for 48 hrs by sulforhodamine B assay relative to control
HOP-62 = test: Growth inhibition of human HOP-62 cells assessed as cell growth at 10 uM incubated for 48 hrs by sulforhodamine B assay relative to control
ACHN = test: Growth inhibition of human ACHN cells assessed as cell growth at 10 uM incubated for 48 hrs by sulforhodamine B assay relative to control
NCI-H460 = test: Growth inhibition of human NCI-H460 cells assessed as cell growth at 10 uM incubated for 48 hrs by sulforhodamine B assay relative to control
Malme-3M = test: Growth inhibition of human Malme-3M cells assessed as cell growth at 10 uM incubated for 48 hrs by sulforhodamine B assay relative to control
MOLT-4 = test: Growth inhibition of human MOLT-4 cells assessed as cell growth at 10 uM incubated for 48 hrs by sulforhodamine B assay relative to control
TK-10 = test: Growth inhibition of human TK-10 cells assessed as cell growth at 10 uM incubated for 48 hrs by sulforhodamine B assay relative to control
NCI-H522 = test: Growth inhibition of human NCI-H522 cells assessed as cell growth at 10 uM incubated for 48 hrs by sulforhodamine B assay relative to control
SK-MEL-5 = test: Growth inhibition of human SK-MEL-5 cells assessed as cell growth at 10 uM incubated for 48 hrs by sulforhodamine B assay relative to control
DU-145 = test: Growth inhibition of human DU-145 cells assessed as cell growth at 10 uM incubated for 48 hrs by sulforhodamine B assay relative to control
K562 = test: Growth inhibition of human K562 cells assessed as cell growth at 10 uM incubated for 48 hrs by sulforhodamine B assay relative to control
PC-3 = test: Growth inhibition of human PC-3 cells assessed as cell growth at 10 uM incubated for 48 hrs by sulforhodamine B assay relative to control
OVCAR-5 = test: Growth inhibition of human OVCAR-5 cells assessed as cell growth at 10 uM incubated for 48 hrs by sulforhodamine B assay relative to control
BT-549 = test: Growth inhibition of human BT-549 cells assessed as cell growth at 10 uM incubated for 48 hrs by sulforhodamine B assay relative to control
T47D = test: Growth inhibition of human T47D cells assessed as cell growth at 10 uM incubated for 48 hrs by sulforhodamine B assay relative to control
RPMI-8226 = test: Growth inhibition of human RPMI-8226 cells assessed as cell growth at 10 uM incubated for 48 hrs by sulforhodamine B assay relative to control

Compound	growth at 10 µM (KM12)	growth at 10 µM (HCC 2998)	growth at 10 µM (HL-60(TB))	growth at 10 µM (NCI/ADR-RES)	growth at 10 µM (UACC-62)	growth at 10 µM (SF-268)	growth at 10 µM (SF-539)	growth at 10 µM (NCI-H322M)	growth at 10 µM (NCI-H226)	growth at 10 µM (NCI-H23)	growth at 10 µM (UACC-257)	growth at 10 µM (M14)	growth at 10 µM (CAKI-1)	growth at 10 µM (MDA-MB-435)	growth at 10 µM (HCT-15)	growth at 10 µM (HT-29)	growth at 10 µM (SNB-19)	growth at 10 µM (EKVX)	growth at 10 µM (U-251)	growth at 10 µM (SNB-75)	other results
CC(=O)Nc1cc(CCl)cc(NC(=O)c2ccc(C(=O)NCCCN(C)C)cc2)c1	107%	90%	104%	109%	114%	106%	92.8%	116%	105%	97.8%	102%	107%	102%	105%	104%	103%	117%	101%	103%	86%	growth at 10 µM (CCRF-CEM): 103%; growth at 10 µM (UO-31): 103%; growth at 10 µM (786-0): 104%; growth at 10 µM (SK-MEL-2): 102%; growth at 10 µM (HOP-62): 106%; growth at 10 µM (ACHN): 105%; growth at 10 µM (NCI-H460): 104%; growth at 10 µM (Malme-3M): 109%; growth at 10 µM (MOLT-4): 105%; growth at 10 µM (TK-10): 107%; growth at 10 µM (NCI-H522): 98.7%; growth at 10 µM (SK-MEL-5): 108%; growth at 10 µM (DU-145): 112%; growth at 10 µM (K562): 106%; growth at 10 µM (PC-3): 109%; growth at 10 µM (OVCAR-5): 97.5%; growth at 10 µM (BT-549): 105%; growth at 10 µM (T47D): 97.6%
CCN(CC)CC(=O)Nc1cccc(C(=O)Nc2cc(CO)cc(NC(C)=O)c2)c1	110%	95.8%	105%	107%	106%	113%	98.7%	117%	95.7%	98.4%	101%	103%	112%	110%	103%	103%	105%	120%	103%	91%	growth at 10 µM (CCRF-CEM): 97.2%; growth at 10 µM (UO-31): 96.6%; growth at 10 µM (786-0): 98.7%; growth at 10 µM (SK-MEL-2): 99.8%; growth at 10 µM (HOP-62): 96.9%; growth at 10 µM (ACHN): 105%; growth at 10 µM (NCI-H460): 104%; growth at 10 µM (Malme-3M): 102%; growth at 10 µM (MOLT-4): 111%; growth at 10 µM (TK-10): 96.6%; growth at 10 µM (NCI-H522): 93.8%; growth at 10 µM (SK-MEL-5): 102%; growth at 10 µM (DU-145): 125%; growth at 10 µM (K562): 105%; growth at 10 µM (PC-3): 102%; growth at 10 µM (OVCAR-5): 105%; growth at 10 µM (BT-549): 105%; growth at 10 µM (T47D): 92.9%
CCN(CC)CC(=O)Nc1ccc(C(=O)Nc2cc(CO)cc(NC(C)=O)c2)cc1	107%	98.6%	107%	110%	97%	107%	99.7%	105%	95.8%	104%	103%	109%	106%	96.3%	100%	110%	98%	104%	108%	110%	growth at 10 µM (RPMI-8226): 126%; growth at 10 µM (CCRF-CEM): 98.2%; growth at 10 µM (UO-31): 97.8%; growth at 10 µM (786-0): 97.4%; growth at 10 µM (SK-MEL-2): 107%; growth at 10 µM (HOP-62): 101%; growth at 10 µM (ACHN): 108%; growth at 10 µM (NCI-H460): 109%; growth at 10 µM (Malme-3M): 103%; growth at 10 µM (MOLT-4): 120%; growth at 10 µM (TK-10): 99.2%; growth at 10 µM (NCI-H522): 105%; growth at 10 µM (SK-MEL-5): 103%; growth at 10 µM (DU-145): 119%; growth at 10 µM (PC-3): 116%; growth at 10 µM (OVCAR-5): 107%; growth at 10 µM (BT-549): 112%; growth at 10 µM (T47D): 99.1%
